From PubChem BioAssay (NCI)
Where “and” joins values, the source holds several entries; their conditions need not be identical. Equal values may be shown once.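 Exposure lasted 48 hours, with cells grown in 96-well plates and compounds tested at five concentrations. The concentration for 50% growth inhibition is given as GI50. TGI: total growth inhibition.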

Legend:
Assay in all cases: growth of human tumour cells (NCI), 48 h
KM12 colon = tested on: KM12 colon
TK-10 renal = tested on: TK-10 renal
RPMI-8226 leukemia = tested on: RPMI-8226 leukemia
NCI-H226 lung = tested on: NCI-H226 lung
SF-295 CNS = tested on: SF-295 CNS
CAKI-1 renal = tested on: CAKI-1 renal
NCI-H522 lung = tested on: NCI-H522 lung
PC-3 prostate = tested on: PC-3 prostate
A549 NSCLC = tested on: A549 NSCLC
SNB-75 CNS = tested on: SNB-75 CNS

Structure (SMILES): CS(=O)(=O)OCCCCOS(C)(=O)=O
- GI50 (KM12 colon): > 872 µM
- TGI (KM12 colon): > 1000 µM
- GI50 (TK-10 renal): > 464 µM
- TGI (TK-10 renal): > 464 µM
- GI50 (RPMI-8226 leukemia): 95.9 µM
- TGI (RPMI-8226 leukemia): 250 µM and > 1000 µM
- GI50 (NCI-H226 lung): > 966 µM
- TGI (NCI-H226 lung): 250 µM and > 1000 µM
- GI50 (SF-295 CNS): 423 µM
- TGI (SF-295 CNS): 237 µM and > 1000 µM
- GI50 (CAKI-1 renal): 305 µM
- TGI (CAKI-1 renal): 212 µM and 980 µM
- GI50 (NCI-H522 lung): 466 µM
- TGI (NCI-H522 lung): 250 µM and > 1000 µM
- GI50 (PC-3 prostate): > 1000 µM
- TGI (PC-3 prostate): 250 µM and > 1000 µM
- GI50 (A549 NSCLC): 538 µM
- TGI (A549 NSCLC): 243 µM and > 1000 µM
- GI50 (SNB-75 CNS): 431 µM
- TGI (SNB-75 CNS): 221 µM and > 1000 µM

Structure (SMILES): S=P(C1CCCCC1)(C1CCCCC1)C(c1cccnc1)N1CCCC1 (stereo not drawn)
- TGI (KM12 colon): 33.4 µM
- TGI (TK-10 renal): 34.3 µM
- TGI (RPMI-8226 leukemia): 38.3 µM
- TGI (NCI-H226 lung): 38 µM
- TGI (SF-295 CNS): 49.2 µM
- TGI (CAKI-1 renal): 31.9 µM
- TGI (NCI-H522 lung): 41.2 µM
- TGI (PC-3 prostate): 36.9 µM
- TGI (A549 NSCLC): 35.4 µM
- TGI (SNB-75 CNS): 35.4 µM

Structure (SMILES): CCN(CC)c1ccc(CNc2cc(C)nc3ccc(OC)cc23)cc1
- GI50 (KM12 colon): 3.1 µM
- TGI (KM12 colon): 11.6 µM
- GI50 (TK-10 renal): 1.92 µM
- TGI (TK-10 renal): 4.64 µM
- GI50 (RPMI-8226 leukemia): 1.71 µM
- TGI (RPMI-8226 leukemia): 4.2 µM
- GI50 (NCI-H226 lung): 3.12 µM
- TGI (NCI-H226 lung): 14.4 µM
- GI50 (SF-295 CNS): 1.78 µM
- TGI (SF-295 CNS): 3.89 µM
- GI50 (CAKI-1 renal): 1.89 µM
- TGI (CAKI-1 renal): 10.5 µM
- GI50 (NCI-H522 lung): 1.51 µM
- TGI (NCI-H522 lung): 3.28 µM
- GI50 (PC-3 prostate): 2.82 µM
- TGI (PC-3 prostate): 13.1 µM
- GI50 (A549 NSCLC): 6.41 µM
- TGI (A549 NSCLC): 21.2 µM
- GI50 (SNB-75 CNS): 2.04 µM
- TGI (SNB-75 CNS): 5.05 µM

Structure (SMILES): Cc1ccccc1NC(=O)N/C(N)=N/c1nc(C)c(C)s1
- GI50 (KM12 colon): 0.206 µM
- TGI (KM12 colon): > 100 µM
- TGI (TK-10 renal): > 100 µM
- GI50 (RPMI-8226 leukemia): 0.39 µM
- TGI (RPMI-8226 leukemia): > 100 µM
- GI50 (NCI-H226 lung): 2.08 µM
- TGI (NCI-H226 lung): > 100 µM
- GI50 (SF-295 CNS): 0.164 µM
- TGI (SF-295 CNS): > 100 µM
- GI50 (CAKI-1 renal): 0.197 µM
- TGI (CAKI-1 renal): 97.1 µM
- GI50 (NCI-H522 lung): 0.0478 µM
- TGI (NCI-H522 lung): > 42.5 µM
- GI50 (PC-3 prostate): 0.395 µM
- TGI (PC-3 prostate): > 100 µM
- GI50 (A549 NSCLC): 0.545 µM
- TGI (A549 NSCLC): > 100 µM
- GI50 (SNB-75 CNS): 0.175 µM
- TGI (SNB-75 CNS): 0.754 µM

Structure (SMILES): COc1ccccc1CN=C1NC(=O)/C(=C/c2ccc3ncccc3c2)S1
- GI50 (KM12 colon): 6.18 µM
- TGI (KM12 colon): > 16.9 µM
- GI50 (TK-10 renal): 7.97 µM
- TGI (TK-10 renal): > 25 µM
- GI50 (RPMI-8226 leukemia): 7.17 µM
- TGI (RPMI-8226 leukemia): > 25 µM
- GI50 (NCI-H226 lung): 8.43 µM
- TGI (NCI-H226 lung): > 25 µM
- GI50 (SF-295 CNS): 5.7 µM
- TGI (SF-295 CNS): > 21 µM
- GI50 (CAKI-1 renal): 6.84 µM
- TGI (CAKI-1 renal): > 25 µM
- GI50 (NCI-H522 lung): 4.96 µM
- TGI (NCI-H522 lung): 13 µM
- GI50 (PC-3 prostate): 18.5 µM
- TGI (PC-3 prostate): > 25 µM
- GI50 (A549 NSCLC): 6.93 µM
- TGI (A549 NSCLC): > 25 µM
- GI50 (SNB-75 CNS): 3.9 µM
- TGI (SNB-75 CNS): > 25 µM

Structure (SMILES): Oc1ccccc1/C=N/Nc1nc2ccccc2s1
- GI50 (KM12 colon): 3.1 µM
- TGI (KM12 colon): > 100 µM
- GI50 (TK-10 renal): 4.79 µM
- TGI (TK-10 renal): > 100 µM
- GI50 (RPMI-8226 leukemia): 4.7 µM
- TGI (RPMI-8226 leukemia): > 100 µM
- GI50 (NCI-H226 lung): 10.7 µM
- TGI (NCI-H226 lung): > 100 µM
- GI50 (SF-295 CNS): 5.3 µM
- TGI (SF-295 CNS): > 100 µM
- GI50 (CAKI-1 renal): 2.95 µM
- TGI (CAKI-1 renal): > 100 µM
- GI50 (NCI-H522 lung): 4.74 µM
- TGI (NCI-H522 lung): > 100 µM
- GI50 (PC-3 prostate): 11 µM
- TGI (PC-3 prostate): > 100 µM
- GI50 (A549 NSCLC): 6.52 µM
- TGI (A549 NSCLC): > 100 µM
- GI50 (SNB-75 CNS): 6.55 µM
- TGI (SNB-75 CNS): 32.2 µM

Structure (SMILES): C=C(C)[C@@H]1CC[C@]2(C(=O)N3CCN(C)CC3)CC[C@]3(C)[C@H](CC[C@@H]4[C@@]5(C)C/C(=C/c6ccncc6)[C@H](O)C(C)(C)[C@@H]5CC[C@]43C)[C@@H]12
- GI50 (KM12 colon): 3.86 µM
- TGI (KM12 colon): 17.7 µM
- GI50 (TK-10 renal): 15.5 µM
- TGI (TK-10 renal): 89.4 µM
- GI50 (RPMI-8226 leukemia): 3.01 µM
- TGI (RPMI-8226 leukemia): 17 µM
- GI50 (NCI-H226 lung): 7.01 µM
- TGI (NCI-H226 lung): 28.9 µM
- GI50 (SF-295 CNS): 7.2 µM
- TGI (SF-295 CNS): 25.5 µM
- GI50 (CAKI-1 renal): 5.82 µM
- TGI (CAKI-1 renal): 25.5 µM
- GI50 (NCI-H522 lung): 5.24 µM
- TGI (NCI-H522 lung): 25 µM
- GI50 (PC-3 prostate): 2.75 µM
- TGI (PC-3 prostate): 16.7 µM
- GI50 (A549 NSCLC): 5.2 µM
- TGI (A549 NSCLC): > 100 µM
- GI50 (SNB-75 CNS): 51.4 µM
- TGI (SNB-75 CNS): > 100 µM

Structure (SMILES): COc1ccc(-c2c(-c3cc4c(c(OC)c3OC)OCO4)noc2N)cc1
- GI50 (KM12 colon): 0.179 µM
- TGI (KM12 colon): > 100 µM
- GI50 (TK-10 renal): 0.343 µM
- TGI (TK-10 renal): > 100 µM
- GI50 (RPMI-8226 leukemia): 0.503 µM
- TGI (RPMI-8226 leukemia): 50.9 µM
- GI50 (NCI-H226 lung): 0.804 µM
- TGI (NCI-H226 lung): > 100 µM
- GI50 (SF-295 CNS): 0.275 µM
- TGI (SF-295 CNS): > 100 µM
- GI50 (CAKI-1 renal): 0.404 µM
- TGI (CAKI-1 renal): > 100 µM
- GI50 (NCI-H522 lung): 0.081 µM
- TGI (NCI-H522 lung): 0.432 µM
- GI50 (PC-3 prostate): 0.321 µM
- TGI (PC-3 prostate): > 100 µM
- GI50 (A549 NSCLC): 0.544 µM
- TGI (A549 NSCLC): > 100 µM
- GI50 (SNB-75 CNS): 0.138 µM
- TGI (SNB-75 CNS): 0.489 µM

Structure (SMILES): COc1cc(/C=C/C(=O)c2ccc(F)cc2)ccc1OCCCCOc1cc2c(cc1OC)C(=O)N1CCCC1C=N2 (stereo not drawn)
- GI50 (KM12 colon): 0.762 µM
- TGI (KM12 colon): 7.71 µM
- GI50 (TK-10 renal): 1.7 µM
- TGI (TK-10 renal): 23.2 µM
- GI50 (RPMI-8226 leukemia): 0.218 µM
- TGI (RPMI-8226 leukemia): 1.31 µM
- GI50 (NCI-H226 lung): 0.683 µM
- TGI (NCI-H226 lung): 1.7 µM
- GI50 (SF-295 CNS): 0.707 µM
- GI50 (CAKI-1 renal): 1.12 µM
- TGI (CAKI-1 renal): 25.6 µM
- GI50 (NCI-H522 lung): 1.64 µM
- TGI (NCI-H522 lung): 4.35 µM
- GI50 (PC-3 prostate): 0.923 µM
- TGI (PC-3 prostate): 12.8 µM
- GI50 (A549 NSCLC): 2.46 µM
- TGI (A549 NSCLC): > 21.9 µM
- GI50 (SNB-75 CNS): 0.994 µM
- TGI (SNB-75 CNS): 15 µM

Structure (SMILES): C/C(=N\N)C(CN1CCCCC1)C(c1ccccc1)c1c(O)c2ccccc2oc1=O (stereo not drawn)
- TGI (KM12 colon): > 100 µM
- TGI (TK-10 renal): > 100 µM
- TGI (RPMI-8226 leukemia): > 100 µM
- TGI (NCI-H226 lung): > 100 µM
- TGI (SF-295 CNS): > 100 µM
- TGI (CAKI-1 renal): > 100 µM
- TGI (NCI-H522 lung): > 100 µM
- TGI (PC-3 prostate): > 100 µM
- TGI (A549 NSCLC): > 100 µM
- TGI (SNB-75 CNS): > 100 µM

Structure (SMILES): O=C1C2=C(C(=O)c3c(O)ccc(O)c31)N(c1cccnc1)Cc1ccccc1O2
- GI50 (KM12 colon): 1.33 µM
- TGI (KM12 colon): 5.23 µM
- GI50 (TK-10 renal): 0.27 µM
- TGI (TK-10 renal): 0.983 µM
- GI50 (RPMI-8226 leukemia): 0.386 µM
- TGI (RPMI-8226 leukemia): 2.03 µM
- GI50 (NCI-H226 lung): 0.703 µM
- TGI (NCI-H226 lung): 1.82 µM
- GI50 (SF-295 CNS): 2.43 µM
- TGI (SF-295 CNS): 8.4 µM
- GI50 (CAKI-1 renal): 0.103 µM
- TGI (CAKI-1 renal): 0.421 µM
- GI50 (NCI-H522 lung): 0.0288 µM
- TGI (NCI-H522 lung): 0.112 µM
- GI50 (PC-3 prostate): 0.653 µM
- TGI (PC-3 prostate): 2.03 µM
- GI50 (A549 NSCLC): 2.85 µM
- TGI (A549 NSCLC): 19.9 µM
- GI50 (SNB-75 CNS): 0.615 µM
- TGI (SNB-75 CNS): 2.15 µM
